Experimental data published in the supplement of paper PMC10627819.

How the values were obtained:
Test in all cases: fitness (endpoint OD595 vs no drug) (fraction); higher = more growth
S. pneumoniae D39V = tested on: S. pneumoniae D39V
Method in brief: (§1)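 In 384-well plates at 37 °C, cultures began at OD595 0.01 in 30 µl, with 55 µl used for S. pneumoniae. OD595 readings every 30 min for 14 h were corrected by the first reading. Fitness divides the stationary-phase transition optical density by the robust mean of no-drug control wells. The result is capped at 1.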

B. subtilis 168 = tested on: B. subtilis 168
Method in brief: as §1

S. aureus Newman = conditions: one replicate
Method in brief: as §1
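Also: OD595 on entry to stationary phase over no-drug wells; at most 1.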

O=C(O)[C@H]1/C(=C/CO)O[C@@H]2CC(=O)N21 [Clavulanic acid] + CO/N=C(\C(=O)N[C@@H]1C(=O)N2C(C(=O)O)=C(COC(C)=O)CS[C@H]12)c1csc(N)n1 [Cefotaxime]
Conditions	fitness
B. subtilis 168, first compound 1.5 µg/mL, partner 0.5 µg/mL	0.232
B. subtilis 168, first compound 1.5 µg/mL, partner 1 µg/mL	0.154
B. subtilis 168, first compound 1.5 µg/mL, partner 2 µg/mL	0.0721
B. subtilis 168, first compound 3 µg/mL, partner 0.5 µg/mL	0.218
B. subtilis 168, first compound 3 µg/mL, partner 1 µg/mL	0.118
B. subtilis 168, first compound 3 µg/mL, partner 2 µg/mL	0.0681
B. subtilis 168, first compound 6 µg/mL, partner 0.5 µg/mL	0.14
B. subtilis 168, first compound 6 µg/mL, partner 1 µg/mL	0.0836
B. subtilis 168, first compound 6 µg/mL, partner 2 µg/mL	0.0583
S. aureus Newman, first compound 0.03125 µg/mL, partner 0.078 µg/mL	0.994
S. aureus Newman, first compound 0.03125 µg/mL, partner 0.156 µg/mL	0.8
S. aureus Newman, first compound 0.03125 µg/mL, partner 0.312 µg/mL	0.807
S. aureus Newman, first compound 0.0625 µg/mL, partner 0.078 µg/mL	0.898
S. aureus Newman, first compound 0.0625 µg/mL, partner 0.156 µg/mL	0.741
S. aureus Newman, first compound 0.0625 µg/mL, partner 0.312 µg/mL	0.683
S. aureus Newman, first compound 0.125 µg/mL, partner 0.078 µg/mL	0.822
S. aureus Newman, first compound 0.125 µg/mL, partner 0.156 µg/mL	0.703
S. aureus Newman, first compound 0.125 µg/mL, partner 0.312 µg/mL	0.709
S. pneumoniae D39V, first compound 0.5 µg/mL, partner 0.0018 µg/mL	0.99
S. pneumoniae D39V, first compound 0.5 µg/mL, partner 0.0035 µg/mL	0.966
S. pneumoniae D39V, first compound 1 µg/mL, partner 0.0018 µg/mL	0.971
S. pneumoniae D39V, first compound 1 µg/mL, partner 0.0035 µg/mL	0.927
S. pneumoniae D39V, first compound 1 µg/mL, partner 0.007 µg/mL	0.789
S. pneumoniae D39V, first compound 2 µg/mL, partner 0.0018 µg/mL	0.844
S. pneumoniae D39V, first compound 2 µg/mL, partner 0.0035 µg/mL	0.824
S. pneumoniae D39V, first compound 2 µg/mL, partner 0.007 µg/mL	0.582

fitness, B. subtilis 168, one replicate
Conditions	partner 0.00775 µg/mL	partner 0.0155 µg/mL	partner 0.031 µg/mL	partner 0.0625 µg/mL	partner 0.125 µg/mL	partner 0.25 µg/mL
first compound 1.5 µg/mL	0.759	0.65	0.525	0.486	0.286	0.225
first compound 3 µg/mL	0.722	0.593	0.489	0.455	0.322	0.15
first compound 6 µg/mL	0.637	0.467	0.384	0.391	0.258	0.185

O=C(O)[C@H]1/C(=C/CO)O[C@@H]2CC(=O)N21 [Clavulanic acid] + CN(N=O)C(=O)N[C@@H](C=O)[C@@H](O)[C@H](O)[C@H](O)CO [Streptozotocin]
fitness
Conditions	partner 0.15 µg/mL	partner 0.3 µg/mL	partner 0.6 µg/mL	partner 1.2 µg/mL	partner 2.4 µg/mL	partner 4.8 µg/mL
B. subtilis 168, first compound 1.5 µg/mL	0.914	0.898	0.911	–	–	–
B. subtilis 168, first compound 3 µg/mL	0.861	0.848	0.929	–	–	–
B. subtilis 168, first compound 6 µg/mL	0.779	0.772	0.75	–	–	–
S. aureus Newman, first compound 0.03125 µg/mL	0.937	0.91	0.667	–	–	–
S. aureus Newman, first compound 0.0625 µg/mL	0.977	0.911	0.761	–	–	–
S. aureus Newman, first compound 0.125 µg/mL	0.923	0.865	0.655	–	–	–
S. pneumoniae D39V, first compound 0.5 µg/mL	–	–	–	0.937	0.979	0.944
S. pneumoniae D39V, first compound 1 µg/mL	–	–	–	0.882	0.947	0.864
S. pneumoniae D39V, first compound 2 µg/mL	–	–	–	0.784	0.876	0.747
